Measured values from PubChem BioAssay AID2060890 (Molecular Pharmacology Branch, DTP, NCI, 2025).

Test system: LG0703-F948-PDC complex spheroid viability
Assay: Anticancer human tumor LG0703-F948-PDC patient-derived lung adenocarcinoma cell line growth inhibition [RAS]
Conditions: for IC50: curve of first compound; for viability, T/C: stronger effect = lower value; active = viability on the fitted dose curve at most 10% of control; inactive = the rest
Method in brief: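 Multi-cell-type spheroids: tumor cells plus HUVEC endothelial cells and mesenchymal stem cells. RAS-pathway inhibitors were combined with targeted agents, each dosed in half-log steps down from clinical Cmax, or from 10 microM when Cmax was unknown.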

[1] = second compound 0.00316 µM, first compound 0.0316 µM
[2] = second compound 0.00316 µM, first compound 0.1 µM
[3] = second compound 0.01 µM, first compound 0.0316 µM
[4] = second compound 0.01 µM, first compound 0.1 µM
[5] = second compound 0.0316 µM, first compound 0.0316 µM
[6] = second compound 0.0316 µM, first compound 0.1 µM
[7] = second compound 0.1 µM, first compound 0.0316 µM
[8] = second compound 0.1 µM, first compound 0.1 µM
[9] = second compound 0.316 µM, first compound 0.0316 µM
[10] = second compound 0.316 µM, first compound 0.1 µM
[11] = second compound 1 µM, first compound 0.0316 µM
[12] = second compound 1 µM, first compound 0.1 µM
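Also: spheroids exposed to agents for 7 days.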
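For viability, T/C in this document: 100% = DMSO vehicle wells.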

CC(C)n1nc(-c2ccc3oc(N)nc3c2)c2c(N)ncnc21 + C=CC(=O)N1CCN(c2nc(OCC3CCCN3C)nc3c(F)c(-c4nc(N)cc(C)c4C(F)(F)F)c(Cl)cc23)C(C)C1
inactive: viability, T/C (second compound 0.00316 µM, first compound 0.000316 µM) 90.6% | viability, T/C (second compound 0.00316 µM, first compound 0.001 µM) 65.3% | viability, T/C (second compound 0.00316 µM, first compound 0.00316 µM) 49.1% | viability, T/C (second compound 0.00316 µM, first compound 0.01 µM) 29.7% | viability, T/C [1] 12.6% | viability, T/C (second compound 0.01 µM, first compound 0.000316 µM) 92.8% | viability, T/C (second compound 0.01 µM, first compound 0.001 µM) 79.9% | viability, T/C (second compound 0.01 µM, first compound 0.00316 µM) 55.6% | viability, T/C (second compound 0.01 µM, first compound 0.01 µM) 29.7% | viability, T/C [3] 12.3% | viability, T/C (second compound 0.0316 µM, first compound 0.000316 µM) 94.8% | viability, T/C (second compound 0.0316 µM, first compound 0.001 µM) 76% | viability, T/C (second compound 0.0316 µM, first compound 0.00316 µM) 52.3% | viability, T/C (second compound 0.0316 µM, first compound 0.01 µM) 30.9% | viability, T/C [5] 12.8% | viability, T/C (second compound 0.1 µM, first compound 0.000316 µM) 106% | viability, T/C (second compound 0.1 µM, first compound 0.001 µM) 78.3% | viability, T/C (second compound 0.1 µM, first compound 0.00316 µM) 57.6% | viability, T/C (second compound 0.1 µM, first compound 0.01 µM) 31.4% | viability, T/C [7] 14.3% | viability, T/C (second compound 0.316 µM, first compound 0.000316 µM) 103% | viability, T/C (second compound 0.316 µM, first compound 0.001 µM) 79.3% | viability, T/C (second compound 0.316 µM, first compound 0.00316 µM) 59% | viability, T/C (second compound 0.316 µM, first compound 0.01 µM) 31.5% | viability, T/C [9] 12.9% | viability, T/C (second compound 1 µM, first compound 0.000316 µM) 114% | viability, T/C (second compound 1 µM, first compound 0.001 µM) 84.8% | viability, T/C (second compound 1 µM, first compound 0.00316 µM) 59.2% | viability, T/C (second compound 1 µM, first compound 0.01 µM) 34.3% | viability, T/C [11] 13.9%
2.63 nM: IC50 (second compound 0.00316 µM)
4.22 nM: IC50 (second compound 0.316 µM)
active: viability, T/C [2] 7.5% | viability, T/C [4] 7.9% | viability, T/C [6] 6.67% | viability, T/C [8] 8.14% | viability, T/C [10] 7.55% | viability, T/C [12] 6.36%
4.58 nM: IC50 (second compound 1 µM)
4.04 nM: IC50 (second compound 0.01 µM)
3.98 nM: IC50 (second compound 0.1 µM)
3.57 nM: IC50 (second compound 0.0316 µM)

CC(Nc1ccc2c(c1)OCCn1cc(N3C(=O)OCC3C(F)F)nc1-2)C(N)=O (stereo unspecified) + C=CC(=O)N1CCN(c2nc(OCC3CCCN3C)nc3c(F)c(-c4nc(N)cc(C)c4C(F)(F)F)c(Cl)cc23)C(C)C1
987 nM: IC50 (second compound 0.0316 µM)
inactive: viability, T/C [1] 91.8% | viability, T/C [2] 84.8% | viability, T/C (second compound 0.00316 µM, first compound 0.316 µM) 64.5% | viability, T/C (second compound 0.00316 µM, first compound 1 µM) 53.5% | viability, T/C (second compound 0.00316 µM, first compound 3.16 µM) 34.7% | viability, T/C (second compound 0.00316 µM, first compound 10 µM) 14.8% | viability, T/C [3] 99.9% | viability, T/C [4] 83.3% | viability, T/C (second compound 0.01 µM, first compound 0.316 µM) 62.2% | viability, T/C (second compound 0.01 µM, first compound 1 µM) 49.5% | viability, T/C (second compound 0.01 µM, first compound 3.16 µM) 32.9% | viability, T/C (second compound 0.01 µM, first compound 10 µM) 14.2% | viability, T/C [5] 98.9% | viability, T/C [6] 86.7% | viability, T/C (second compound 0.0316 µM, first compound 0.316 µM) 66.9% | viability, T/C (second compound 0.0316 µM, first compound 1 µM) 47.4% | viability, T/C (second compound 0.0316 µM, first compound 3.16 µM) 34.6% | viability, T/C (second compound 0.0316 µM, first compound 10 µM) 13.5% | viability, T/C [7] 105% | viability, T/C [8] 86.3% | viability, T/C (second compound 0.1 µM, first compound 0.316 µM) 63.9% | viability, T/C (second compound 0.1 µM, first compound 1 µM) 50.9% | viability, T/C (second compound 0.1 µM, first compound 3.16 µM) 35.2% | viability, T/C (second compound 0.1 µM, first compound 10 µM) 12.9% | viability, T/C [9] 113% | viability, T/C [10] 86.6% | viability, T/C (second compound 0.316 µM, first compound 0.316 µM) 68% | viability, T/C (second compound 0.316 µM, first compound 1 µM) 44.3% | viability, T/C (second compound 0.316 µM, first compound 3.16 µM) 34.4% | viability, T/C (second compound 0.316 µM, first compound 10 µM) 14.8% | viability, T/C [11] 108% | viability, T/C [12] 96.5% | viability, T/C (second compound 1 µM, first compound 0.316 µM) 69.2% | viability, T/C (second compound 1 µM, first compound 1 µM) 53.5% | viability, T/C (second compound 1 µM, first compound 3.16 µM) 36% | viability, T/C (second compound 1 µM, first compound 10 µM) 11.7%
967 nM: IC50 (second compound 0.1 µM)
962 nM: IC50 (second compound 0.316 µM)
1190 nM: IC50 (second compound 1 µM)
1150 nM: IC50 (second compound 0.00316 µM)
882 nM: IC50 (second compound 0.01 µM)

CCC(CC)c1cc(NC2CCC(N)C2)n2nccc2n1 (stereo unspecified) + CCn1c(-c2cc(N3CCN(C)CC3)cnc2C(C)OC)c2c3cc(ccc31)-c1csc(n1)CC(NC(=O)C1CC1C)C(=O)N1CCCC(N1)C(=O)OCC(C)(C)C2
< 31.6 nM: IC50 (second compound 0.003 µM) | IC50 (second compound 0.00949 µM) | IC50 (second compound 0.03 µM) | IC50 (second compound 0.0949 µM) | IC50 (second compound 0.3 µM)
inactive: viability, T/C (second compound 0.000949 µM, first compound 0.0316 µM) 72.3% | viability, T/C (second compound 0.000949 µM, first compound 0.1 µM) 59.8% | viability, T/C (second compound 0.000949 µM, first compound 0.316 µM) 55.2% | viability, T/C (second compound 0.000949 µM, first compound 1 µM) 33.9% | viability, T/C (second compound 0.003 µM, first compound 0.0316 µM) 44.1% | viability, T/C (second compound 0.003 µM, first compound 0.1 µM) 40.2% | viability, T/C (second compound 0.003 µM, first compound 0.316 µM) 36.8% | viability, T/C (second compound 0.003 µM, first compound 1 µM) 25.3% | viability, T/C (second compound 0.00949 µM, first compound 0.0316 µM) 24.1% | viability, T/C (second compound 0.00949 µM, first compound 0.1 µM) 20.3% | viability, T/C (second compound 0.00949 µM, first compound 0.316 µM) 17.9% | viability, T/C (second compound 0.03 µM, first compound 0.0316 µM) 13% | viability, T/C (second compound 0.03 µM, first compound 0.1 µM) 13.9% | viability, T/C (second compound 0.0949 µM, first compound 0.0316 µM) 9.5% | viability, T/C (second compound 0.3 µM, first compound 0.0316 µM) 8.46%
active: viability, T/C (second compound 0.000949 µM, first compound 3.16 µM) 0.67% | viability, T/C (second compound 0.000949 µM, first compound 10 µM) 0.23% | viability, T/C (second compound 0.003 µM, first compound 3.16 µM) 0.46% | viability, T/C (second compound 0.003 µM, first compound 10 µM) 0.16% | viability, T/C (second compound 0.00949 µM, first compound 1 µM) 9.58% | viability, T/C (second compound 0.00949 µM, first compound 3.16 µM) 0.42% | viability, T/C (second compound 0.00949 µM, first compound 10 µM) 0.27% | viability, T/C (second compound 0.03 µM, first compound 0.316 µM) 13.1% | viability, T/C (second compound 0.03 µM, first compound 1 µM) 6.07% | viability, T/C (second compound 0.03 µM, first compound 3.16 µM) 0.25% | viability, T/C (second compound 0.03 µM, first compound 10 µM) 0.24% | viability, T/C (second compound 0.0949 µM, first compound 0.1 µM) 10.2% | viability, T/C (second compound 0.0949 µM, first compound 0.316 µM) 9.16% | viability, T/C (second compound 0.0949 µM, first compound 1 µM) 5.84% | viability, T/C (second compound 0.0949 µM, first compound 3.16 µM) 0.57% | viability, T/C (second compound 0.0949 µM, first compound 10 µM) 0.11% | viability, T/C (second compound 0.3 µM, first compound 0.1 µM) 9.75% | viability, T/C (second compound 0.3 µM, first compound 0.316 µM) 8.9% | viability, T/C (second compound 0.3 µM, first compound 1 µM) 4.9% | viability, T/C (second compound 0.3 µM, first compound 3.16 µM) 0.23% | viability, T/C (second compound 0.3 µM, first compound 10 µM) 0.41%
427 nM: IC50 (second compound 0.000949 µM)
